Measurements taken from patent US12691111B2, “SETD2 inhibitors and related methods and uses, including combination therapies” (EPIZYME, INC., priority 2020, dated 2026).

Experiments:
[1] = tested on: KMS-28-BM; experiment: 7-day co-treatment combination study, CellTiter-Glo, Loewe Volume; format: cell-based; conditions: KMS-28-BM multiple myeloma cells, 7-day co-treatment with Cpd. No. 15
Procedure: (§1) Multiple myeloma (MM) and mantle cell lymphoma (MCL) Cell line cultures in log-linear growth rate were treated with combinations of Cpd. No. 15 and combination partners according to a co-treatment model. […] No. 15 and the combination partner. […] Each combination was tested in quadruplicate wells. The final concentration of DMSO (vehicle) in the assay was 0.1% v/v. Fifty microliters of cell line suspension were directly dispensed to the assay-ready plates with an automated multichannel dispenser on to 384-well assay-ready plates. Assay plates were incubated for seven days in a humidified atmosphere of 5% CO2 at 37° C. Quantification of the effect of single agents or combinations on cell viability was performed through measurement of cellular adenosine triphosphate (ATP) using a CellTiter-Glo® (Promega, MadisonWIs.) Luminescent Cell Viability Assay. Luminescence was detected using a SpectraMax M5 microplate reader (Molecular Devices, Sunnyvale, CA). Concentration response plots were generated in GraphPad Prism version 7.0 for Windows, GraphPad Software, (La Jolla, CA) and curves fitted to a four-parameter logistic model with variable slope. Percent of inhibition was calculated at each treatment concentration.
(§2) The results of these combinations are summarized in Tables A and B (multiple myeloma cell lines), and Tables C and D (mantle cell lymphoma cell lines).

[2] = tested on: KMS34; experiment: as above; format: cell-based; conditions: KMS34 multiple myeloma cells, 7-day co-treatment with Cpd. No. 15
Procedure: as §1, §2

[3] = tested on: L363; experiment: as above; format: cell-based; conditions: L363 multiple myeloma cells, 7-day co-treatment with Cpd. No. 15
Procedure: as §1, §2

[4] = tested on: MM1.S; experiment: as above; format: cell-based; conditions: MM1.S multiple myeloma cells, 7-day co-treatment with Cpd. No. 15
Procedure: as §1, §2

[5] = tested on: NCI-H929; experiment: as above; format: cell-based; conditions: NCI-H929 multiple myeloma cells, 7-day co-treatment with Cpd. No. 15
Procedure: as §1, §2

[6] = tested on: RPMI-8226; experiment: as above; format: cell-based; conditions: RPMI-8226 multiple myeloma cells, 7-day co-treatment with Cpd. No. 15
Procedure: as §1, §2

[7] = tested on: KMS-11; experiment: as above; conditions: for Combination effect (Loewe Volume class) of Cpd. No. 15 with combination partner: KMS-11 multiple myeloma cells, 7-day co-treatment with Cpd. No. 15
[8] = tested on: GRANTA519; experiment: as above; format: cell-based; conditions: GRANTA519 mantle cell lymphoma cells, 7-day co-treatment with Cpd. No. 15
Procedure: as §1, §2

[9] = tested on: JEKO1; experiment: as above; format: cell-based; conditions: JEKO1 mantle cell lymphoma cells, 7-day co-treatment with Cpd. No. 15
Procedure: as §1, §2

[10] = tested on: JVM2; experiment: as above; format: cell-based; conditions: JVM2 mantle cell lymphoma cells, 7-day co-treatment with Cpd. No. 15
Procedure: as §1, §2

[11] = tested on: MAVER1; experiment: as above; format: cell-based; conditions: MAVER1 mantle cell lymphoma cells, 7-day co-treatment with Cpd. No. 15
Procedure: as §1, §2

[12] = tested on: MINO; experiment: as above; format: cell-based; conditions: MINO mantle cell lymphoma cells, 7-day co-treatment with Cpd. No. 15
Procedure: as §1, §2

[13] = tested on: REC1; experiment: as above; format: cell-based; conditions: REC1 mantle cell lymphoma cells, 7-day co-treatment with Cpd. No. 15
Procedure: as §1, §2

[14] = tested on: Z138; experiment: as above; format: cell-based; conditions: Z138 mantle cell lymphoma cells, 7-day co-treatment with Cpd. No. 15
Procedure: as §1, §2

[15] = tested on: KARPAS422; experiment: Pre-treatment model combination study (4 days pre-treatment, 3 days co-treatment), CellTiter-Glo, Loewe Volume; format: cell-based; conditions: KARPAS422 diffuse large B-cell lymphoma cells, 4 days Cpd. No. 15 pre-treatment then 3 days co-treatment
Procedure: (§3) Diffuse large B-cell lymphoma cells were seeded into flasks and pre-treated with several concentrations of Cpd. No. 15 or DMSO. Cells were then split adjusted to initial density, replated and co-treated Cpd. No. 15 and a second agent of interest using the HP D300 digital dispenser (Tecan Group, Mannedorf, Switzerland) in tissue culture treated solid white 384-well plates for additional 3 days. […] After 3 days cotreatment, cell viability was measured via ATP content using CellTiter-Glo® (Promega, Madison, WI) and luminescence was detected using a SpectraMax M5 microplate reader (Molecular Devices, Sunnyvale, CA).
(§4) Diffuse large B-cell lymphoma (DLBCL) cell line cultures in log-linear growth rate were treated with combinations of Cpd. No. 15 and combination partners according to a pre-treatment model. Cells were seeded first into 8 flasks and pre-treated with 7 different concentrations of Cpd. […] Cells were harvested from each flask and re-seeded onto the corresponding 384-well plate with the same concentration of Cpd. No. 15. and 9 concentrations of its combination partner in triplicate wells. The final concentration of DMSO (vehicle) in the assay was 0.1% v/v. Fifty microliters of cell line(s) suspension were directly dispensed to the assay-ready plates with an automated multichannel dispenser on to 384-well assay-ready plates. Assay plates were incubated for three days in a humidified atmosphere of 5% CO2 at 37° C. Quantification of the effect of single agents or combinations on cell viability was performed through measurement of cellular adenosine triphosphate (ATP) using CellTiter-Glo® (Promega, Madison, WI). Luminescence was detected using a SpectraMax M5 microplate reader (Molecular Devices, Sunnyvale, CA). Concentration response plots were generated in GraphPad Prism version 8.0 for Windows, GraphPad Software, (La Jolla, CA) and curves fitted to a four-parameter logistic model with variable slope. Percent of inhibition was calculated at each treatment concentration.

[16] = tested on: SUDHL-2; experiment: as above; format: cell-based; conditions: SUDHL-2 diffuse large B-cell lymphoma cells, 4 days Cpd. No. 15 pre-treatment then 3 days co-treatment
Procedure: as §3, §4

[17] = tested on: SUDHL-6; experiment: as above; format: cell-based; conditions: SUDHL-6 diffuse large B-cell lymphoma cells, 4 days Cpd. No. 15 pre-treatment then 3 days co-treatment
Procedure: as §3, §4

[18] = tested on: WSUDLCL2; experiment: as above; format: cell-based; conditions: WSUDLCL2 diffuse large B-cell lymphoma cells, 4 days Cpd. No. 15 pre-treatment then 3 days co-treatment
Procedure: as §3, §4

Row | Structure (SMILES) | Combination effect (Loewe Volume class) of Cpd. No. 15 with combination partner [1] | Combination effect (Loewe Volume class) of Cpd. No. 15 with combination partner [2] | Combination effect (Loewe Volume class) of Cpd. No. 15 with combination partner [3] | Combination effect (Loewe Volume class) of Cpd. No. 15 with combination partner [4] | Combination effect (Loewe Volume class) of Cpd. No. 15 with combination partner [5] | Combination effect (Loewe Volume class) of Cpd. No. 15 with combination partner [6] | Combination effect (Loewe Volume class) of Cpd. No. 15 with combination partner [7] | further results
1 | Nc1cccc2c1C(=O)N(C1CCC(=O)NC1=O)C2=O (centres unmarked) [Pomalidomide, pomalidomide] | Additivity (between 1 and −1: additivity) | Synergy (VLoewe>1: synergy) | Additivity (between 1 and −1: additivity) | Additivity (between 1 and −1: additivity) | Synergy (VLoewe>1: synergy) | Synergy (VLoewe>1: synergy) | Synergy (VLoewe>1: synergy) | –
2 | C[C@@H]1C[C@H]2[C@@H]3CCC4=CC(=O)C=C[C@]4(C)[C@@]3(F)[C@@H](O)C[C@]2(C)[C@@]1(O)C(=O)CO [Dexamethasone, dexamethasone] | Additivity (between 1 and −1: additivity) | Synergy (VLoewe>1: synergy) | Synergy (VLoewe>1: synergy) | Additivity (between 1 and −1: additivity) | Synergy (VLoewe>1: synergy) | Synergy (VLoewe>1: synergy) | Synergy (VLoewe>1: synergy) | –
3 | CCN(c1cc(C#CCN2CCOCC2)cc(C(=O)NCc2c(C)cc(C)[nH]c2=O)c1C)[C@H]1CC[C@H](N(C)CCOC)CC1 [EPZ-11989] | Additivity (between 1 and −1: additivity) | – | – | – | No Effect | – | Additivity (between 1 and −1: additivity) | –
4 | CC(=O)N1CCN([C@H]2CCC[C@@H](NC(=O)c3cc4c(F)ccc(C)c4[nH]3)C2)CC1 [Cpd. No. 15, N-((1R,3S)-3-(4-acetylpiperazin-1-yl)cyclohexyl)-4-fluoro-7-methyl-1H-indole-2-carboxamide] | – | – | – | – | – | – | – | anti-proliferative activity of Cpd. No. 15 combined with pomalidomide ([7]; KMS-11 cells, 7-day co-treatment study, combined with pomalidomide (FIG. 3)): synergistic
5 | Cc1nc2cccc(N)c2c(=O)n1C1CCC(=O)NC1=O (centres unmarked) [CC-122] | Additivity (between 1 and −1: additivity) | Synergy (VLoewe>1: synergy) | Additivity (between 1 and −1: additivity) | Additivity (between 1 and −1: additivity) | Synergy (VLoewe>1: synergy) | Additivity (between 1 and −1: additivity) | Synergy (VLoewe>1: synergy) | –
6 | C[C@]12C=CC(=O)C=C1CC[C@@H]1[C@@H]2[C@@H](O)C[C@@]2(C)[C@H]1CC[C@]2(O)C(=O)CO [Prednisolone, prednisolone] | – | – | – | – | – | – | – | Combination effect (Loewe Volume class) of Cpd. No. 15 with combination partner [8]: Synergy (VLoewe>1: synergy); Combination effect (Loewe Volume class) of Cpd. No. 15 with combination partner [9]: Additivity (between 1 and −1: additivity); Combination effect (Loewe Volume class) of Cpd. No. 15 with combination partner [10]: Additivity (between 1 and −1: additivity); Combination effect (Loewe Volume class) of Cpd. No. 15 with combination partner [11]: Synergy (VLoewe>1: synergy); Combination effect (Loewe Volume class) of Cpd. No. 15 with combination partner [12]: Additivity (between 1 and −1: additivity); Combination effect (Loewe Volume class) of Cpd. No. 15 with combination partner [13]: Synergy (VLoewe>1: synergy); Combination effect (Loewe Volume class) of Cpd. No. 15 with combination partner [14]: Additivity (between 1 and −1: additivity); Combination effect (Loewe Volume class) of Cpd. No. 15 with combination partner [15]: Additivity (between 1 and −1: additivity); Combination effect (Loewe Volume class) of Cpd. No. 15 with combination partner [16]: Synergy (VLoewe>1: synergy); Combination effect (Loewe Volume class) of Cpd. No. 15 with combination partner [17]: Synergy (VLoewe>1: synergy); Combination effect (Loewe Volume class) of Cpd. No. 15 with combination partner [18]: Antagonism (<−1: antagonistic)
7 | Cc1[nH]c2ccccc2c1CCNCc1ccc(/C=C/C(=O)NO)cc1 [Panobinostat, panobinostat] | Additivity (between 1 and −1: additivity) | Synergy (VLoewe>1: synergy) | Additivity (between 1 and −1: additivity) | Additivity (between 1 and −1: additivity) | Synergy (VLoewe>1: synergy) | Additivity (between 1 and −1: additivity) | Additivity (between 1 and −1: additivity) | –
8 | O=C(/C=C\n1cnc(-c2cc(C(F)(F)F)cc(C(F)(F)F)c2)n1)NNc1cnccn1 [Selinexor, selinexor] | Additivity (between 1 and −1: additivity) | Synergy (VLoewe>1: synergy) | Additivity (between 1 and −1: additivity) | Additivity (between 1 and −1: additivity) | Synergy (VLoewe>1: synergy) | Additivity (between 1 and −1: additivity) | Additivity (between 1 and −1: additivity) | –
